# Values quoted from earlier work, collected in patent US20010014685A1, “Injectable pharmaceutical composition for treatment and reversal of erectile dysfunction” (USA DOCTORS PRODUCTS, INC., priority 1998, published 2001).
# Test system: erectile dysfunction
# Conditions: injectable products including only prostaglandin-E1 / existing preparations
smiles,measurement,value
CCCCC[C@H](O)/C=C/[C@H]1[C@H](O)CC(=O)[C@@H]1CCCCCCC(=O)O [prostaglandin-E1],efficacy for treatment of erectile dysfunction,≤ 50%
